Results: patent US20240287080A1 (IDEAYA Biosciences Inc., priority 2021, published 2024)

Target: T1, Pol theta (1-899) (Homo sapiens, UniProt O75417)
T1 construct: Pol theta (1-899) (5 nM) in assay buffer
Assay: Pol theta ATPase activity, NADH oxidation-coupled enzymatic assay (ATPase NADH coupling: Standard Screening: hPolQ)
Format: biochemical
Conditions: Pol theta (1-899) 5 nM, NADH oxidation-coupled ATPase assay; compounds of Table 3
Method in brief: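 Rates of ATP hydrolysis taken from 60-min A340 traces of NADH oxidation via PK/LDH coupling, then fit four-parameter for IC50, Hill slope and max inhibition. Enzyme (5 nM, 1-899) and compounds preincubated 15 min before ATP 100 μM and 50-thymine ssDNA 300 nM (stock, equal volume added).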

T1 sequence (O75417 1-899): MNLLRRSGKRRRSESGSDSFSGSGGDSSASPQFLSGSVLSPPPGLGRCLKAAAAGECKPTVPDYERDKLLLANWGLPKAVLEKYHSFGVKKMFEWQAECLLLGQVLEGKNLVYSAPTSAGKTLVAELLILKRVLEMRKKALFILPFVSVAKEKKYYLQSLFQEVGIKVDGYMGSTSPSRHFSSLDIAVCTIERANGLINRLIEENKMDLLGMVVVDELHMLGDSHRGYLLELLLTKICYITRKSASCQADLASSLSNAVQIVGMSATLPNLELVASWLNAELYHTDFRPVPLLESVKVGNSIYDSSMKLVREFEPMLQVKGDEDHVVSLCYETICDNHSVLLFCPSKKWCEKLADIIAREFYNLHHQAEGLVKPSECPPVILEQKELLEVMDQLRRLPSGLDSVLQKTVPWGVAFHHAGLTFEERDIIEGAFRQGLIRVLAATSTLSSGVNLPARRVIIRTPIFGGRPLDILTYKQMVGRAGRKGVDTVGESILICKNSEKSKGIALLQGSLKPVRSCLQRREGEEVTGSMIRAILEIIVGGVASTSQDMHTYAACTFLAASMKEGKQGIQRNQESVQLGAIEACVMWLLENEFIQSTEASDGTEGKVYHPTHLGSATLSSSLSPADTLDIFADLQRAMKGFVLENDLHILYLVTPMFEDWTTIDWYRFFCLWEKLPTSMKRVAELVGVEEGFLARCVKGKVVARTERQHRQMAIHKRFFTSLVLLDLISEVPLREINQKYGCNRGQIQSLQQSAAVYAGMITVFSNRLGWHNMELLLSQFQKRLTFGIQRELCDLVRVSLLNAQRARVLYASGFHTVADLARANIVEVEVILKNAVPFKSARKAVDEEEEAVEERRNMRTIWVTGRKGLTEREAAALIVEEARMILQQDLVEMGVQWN

IC50 [nM]	SMILES
1000 to 10000	COc1nnc(NC(=O)c2cnc(C)cc2-c2cccc(OC)c2F)s1 [Example 446, 4-(2-fluoro-3-methoxyphenyl)-N-(5-methoxy-1,3,4-thiadiazol-2-yl)-6-methylpyridine-3-carboxamide]
500 to 1000	COc1nnc(NC(=O)c2cnc(C)cc2-c2cc(C)cc(C)c2)s1 [Example 358, 4-(3,5-dimethylphenyl)-N-(5-methoxy-1,3,4-thiadiazol-2-yl)-6-methylpyridine-3-carboxamide]
1000 to 10000	COc1nnc(NC(=O)c2cnc(C)cc2-c2cccnc2)s1 [Example 331, N-(5-methoxy-1,3,4-thiadiazol-2-yl)-6′-methyl-[3,4′-bipyridine]-3′-carboxamide]
≤ 200	COc1nnc(NC(=O)c2cnc(C)cc2-c2cc(Cl)c(S(C)(=O)=O)cc2OC)s1 [Example 272, 4-(5-chloro-2-methoxy-4-(methylsulfonyl)phenyl)-N-(5-methoxy-1,3,4-thiadiazol-2-yl)-6-methylnicotinamide]
1000 to 10000	COc1nnc(NC(=O)c2cnc(C)cc2-c2cccs2)s1 [Example 360, N-(5-methoxy-1,3,4-thiadiazol-2-yl)-6-methyl-4-(thiophen-2-yl)pyridine-3-carboxamide]
1000 to 10000	COc1nnc(NC(=O)c2cnc(C)cc2-c2ccc(F)c(OC)c2)s1 [Example 330, 4-(4-fluoro-3-methoxyphenyl)-N-(5-methoxy-1,3,4-thiadiazol-2-yl)-6-methylpyridine-3-carboxamide]
≤ 200	COc1cnc(Cl)cc1-c1cc(C)ncc1C(=O)Nc1nnc(O[C@@H]2CCCN([C@H]3CCOC3)C2)s1 [Example 275, 2′-chloro-5′-methoxy-6-methyl-N-(5-(((R)-1-((S)-tetrahydrofuran-3-yl)piperidin-3-yl)oxy)-1,3,4-thiadiazol-2-yl)-[4,4′-bipyridine]-3-carboxamide]
1000 to 10000	COc1ccc(-c2cc(C)ncc2C(=O)Nc2nnc(OC)s2)cn1 [Example 407, 6-methoxy-N-(5-methoxy-1,3,4-thiadiazol-2-yl)-6′-methyl-[3,4′-bipyridine]-3′-carboxamide]
≤ 200	COc1cnc(C)c(F)c1-c1cc(C)ncc1C(=O)Nc1nnc(O[C@@H]2C[C@@H]3C[C@H]2C[C@H]3O)s1 (single isomer, unassigned) [Example 254]
1000 to 10000	COc1nnc(NC(=O)c2cnc(C)cc2-c2cn[nH]c2)s1 [Example 451, N-(5-methoxy-1,3,4-thiadiazol-2-yl)-6-methyl-4-(1H-pyrazol-4-yl)nicotinamide]
1000 to 10000	COc1nnc(NC(=O)c2cnc(C)cc2-c2ccc(C#N)nc2)s1 [Example 437, 6-cyano-N-(5-methoxy-1,3,4-thiadiazol-2-yl)-6′-methyl-[3,4′-bipyridine]-3′-carboxamide]
≤ 200	COc1cnc(Cl)cc1-c1cc(C)ncc1C(=O)Nc1nnc(OC2CCCN(C3COC3)C2)s1 (stereo not drawn) [Example 250, 2′-chloro-5′-methoxy-6-methyl-N-(5-((1-(oxetan-3-yl)piperidin-3-yl)oxy)-1,3,4-thiadiazol-2-yl)-[4,4′-bipyridine]-3-carboxamide]
≤ 200	COc1nnc(NC(=O)c2cnc(C)cc2-c2cccc3ccccc23)s1 [Example 398, N-(5-methoxy-1,3,4-thiadiazol-2-yl)-6-methyl-4-(naphthalen-1-yl)pyridine-3-carboxamide]
1000 to 10000	COc1nnc(NC(=O)c2cnc(C)cc2-c2cnc(C(F)(F)F)cc2C)s1 [Example 424, N-(5-methoxy-1,3,4-thiadiazol-2-yl)-4,6′-dimethyl-6-(trifluoromethyl)-[3,4′-bipyridine]-3′-carboxamide]
1000 to 10000	COc1nnc(NC(=O)c2cnc(C)cc2-c2ccc3c(c2)CCO3)s1 [Example 380, 4-(2,3-dihydro-1-benzofuran-5-yl)-N-(5-methoxy-1,3,4-thiadiazol-2-yl)-6-methylpyridine-3-carboxamide]
≤ 200	COc1cnc(Cl)cc1-c1cc(C)ncc1C(=O)Nc1nnc(O[C@H]2C[C@H]3C[C@@H]2C[C@@H]3O)s1 (single isomer, unassigned) [Example 269]
≤ 200	CC[S@@+]([O-])c1cc(OC)c(-c2cc(C)ncc2C(=O)Nc2nnc(OC)s2)cc1Cl (single isomer, unassigned) [Example 313]

Same assay, conditions: Table 4; Pol theta (1-899) 5 nM, ATP, dT50 ssDNA

IC50 [nM]	SMILES
≤ 200	CCCOc1nnc(NC(=O)c2cnc(C)cc2-c2cc(Cl)ncc2OC)s1 [Example 37, 2′-chloro-5′-methoxy-6-methyl-N-(5-propoxy-1,3,4-thiadiazol-2-yl)-(4,4′-bipyridine)-3-carboxamide]
≤ 200	COc1cnc(Cl)cc1-c1cc(C)ncc1C(=O)Nc1nnc(OC2(C)COC2)s1 [Example 24, 2′-chloro-5′-methoxy-6-methyl-N-(5-((3-methyloxetan-3-yl)oxy)-1,3,4-thiadiazol-2-yl)-(4,4′-bipyridine)-3-carboxamide]
≤ 200	COc1cnc(Cl)cc1-c1cc(C)ncc1C(=O)Nc1nnc(O[C@H]2CC[C@@H](O)C2)s1 (single isomer, unassigned) [Example 58]
1000 to 10000	COc1nnc(NC(=O)c2cnc(C)cc2-c2cc3[nH]cnc3cc2OC)s1 [Example 71, N-(5-methoxy-1,3,4-thiadiazol-2-yl)-4-(5-methoxy-1H-benzo(d)imidazol-6-yl)-6-methylnicotinamide]
≤ 200	COc1nnc(NC(=O)c2cnc(C)cc2-c2c(F)cccc2OC)s1 [Example 2, 4-(2-fluoro-6-methoxyphenyl)-N-(5-methoxy-1,3,4-thiadiazol-2-yl)-6-methylpyridine-3-carboxamide]
≤ 200	COc1nnc(NC(=O)c2cnc(C)cc2-c2cc(Cl)ncc2OC(F)F)s1 [Example 48, 2′-chloro-5′-(difluoromethoxy)-N-(5-methoxy-1,3,4-thiadiazol-2-yl)-6-methyl-(4,4′-bipyridine)-3-carboxamide]
≤ 200	COc1cnc(Cl)cc1-c1cc(C)ncc1C(=O)Nc1nnc(OC2CCCC2)s1 [Example 17, 2′-chloro-N-(5-(cyclopentyloxy)-1,3,4-thiadiazol-2-yl)-5′-methoxy-6-methyl-(4,4′-bipyridine)-3-carboxamide]
≤ 200	COc1nnc(NC(=O)c2cnc(C)cc2-c2c(OC)cnc(C)c2F)s1 [Example 61, 3′-fluoro-5′-methoxy-N-(5-methoxy-1,3,4-thiadiazol-2-yl)-2′,6-dimethyl-(4,4′-bipyridine)-3-carboxamide]

SMILES	IC50 [nM]
COc1cnc(Cl)cc1-c1cc(C)ncc1C(=O)Nc1nnc(OCC(C)C)s1 [Example 21, 2′-chloro-N-(5-isobutoxy-1,3,4-thiadiazol-2-yl)-5′-methoxy-6-methyl-(4,4′-bipyridine)-3-carboxamide]	≤ 200

Same assay, conditions: Table 5; Pol theta (1-899) 5 nM, ATP, dT50 ssDNA

IC50 [nM]	SMILES
≤ 200	COc1cnc(Cl)cc1-c1cc(C)ncc1C(=O)Nc1nnc(O[C@H]2CC[C@H](C(C)(C)O)CC2)s1 [Example 187, 2′-chloro-N-(5-(((1r,4r)-4-(2-hydroxypropan-2-yl)cyclohexyl)oxy)-1,3,4-thiadiazol-2-yl)-5′-methoxy-6-methyl-(4,4′-bipyridine)-3-carboxamide]
≤ 200	COc1cnc(Cl)cc1-c1cc(C)ncc1C(=O)Nc1nnc(O[C@@H]2CCC[C@@H](O)C2)s1 (single isomer, unassigned) [Example 162]
≤ 200	COc1cnc(Cl)c(F)c1-c1cc(C)ncc1C(=O)Nc1nnc(O[C@@H]2CC[C@@H](O)C2)s1 (single isomer, unassigned) [Example 198]
≤ 200	Cc1cc(-c2cc(Br)ncc2OC(F)F)c(C(=O)Nc2nnc(O[C@@H]3CCOC3)s2)cn1 [Example 195, (R)-2′-bromo-5′-(difluoromethoxy)-6-methyl-N-(5-((tetrahydrofuran-3-yl)oxy)-1,3,4-thiadiazol-2-yl)-(4,4′-bipyridine)-3-carboxamide]
≤ 200	COc1cnc(Cl)cc1-c1cc(C)ncc1C(=O)Nc1nnc(O[C@H]2CCC[C@@](C)(O)C2)s1 (single isomer, unassigned) [Example 179]
≤ 200	COc1cnc(Cl)c(F)c1-c1cc(C)ncc1C(=O)Nc1nnc(O[C@H]2CCC[C@@H](O)C2)s1 (single isomer, unassigned) [Example 154]
≤ 200	COc1cnc(Cl)cc1-c1cc(C)ncc1C(=O)Nc1nnc(OC2CCC3(CCCO3)CC2)s1 (single isomer, unassigned) [Example 174, N-(5-(((5r,8s)-1-oxaspiro(4.5)decan-8-yl)oxy)-1,3,4-thiadiazol-2-yl)-2′-chloro-5′-methoxy-6-methyl-(4,4′-bipyridine)-3-carboxamide]
≤ 200	COc1cnc(C)c(F)c1-c1cc(C)ncc1C(=O)Nc1nnc(O[C@@H]2CCOC2)s1 [Example 206]
≤ 200	COc1cnc(Cl)c(F)c1-c1cc(C)ncc1C(=O)Nc1nnc(O[C@@H]2CCC[C@H](O)C2)s1 (single isomer, unassigned) [Example 155]
≤ 200	COc1cnc(Cl)c(F)c1-c1cc(C)ncc1C(=O)Nc1nnc(O[C@H]2CC[C@H](O)C2)s1 (single isomer, unassigned) [Example 197]
≤ 200	COc1cnc(Br)cc1-c1cc(C)ncc1C(=O)Nc1nnc(OC2COC2)s1 [Example 188, 2′-bromo-5′-methoxy-6-methyl-N-(5-(oxetan-3-yloxy)-1,3,4-thiadiazol-2-yl)-(4,4′-bipyridine)-3-carboxamide]
≤ 200	COc1cnc(C)c(F)c1-c1cc(C)ncc1C(=O)Nc1nnc(OC2COC2)s1 [Example 204]

SMILES	IC50 [nM]
COc1cnc(Cl)c(F)c1-c1cc(C)ncc1C(=O)Nc1nnc(O[C@H]2C[C@@H](O)C2)s1 [Example 129, 2′-chloro-3′-fluoro-N-(5-((1s,3s)-3-hydroxycyclobutoxy)-1,3,4-thiadiazol-2-yl)-5′-methoxy-6-methyl-(4,4′-bipyridine)-3-carboxamide]	≤ 200
